Test results published in patent US5075287A, “Muramyl peptide derivatives and immunoregulating compositions containing them” (priority 1989, dated 1991).
Like-named read-outs stand apart in the source and are kept apart here.

How the values were obtained:
[1] = system: L-1210 mouse leukemia cells; test: Activation of macrophages (growth inhibition of tumor cells by intraperitoneal macrophages of treated mice, MTT assay); assay type: cell-based; conditions: macrophages taken 3 days after i.p. 0.2 ml of 500 μg/ml, macrophage:L-1210 20:1, 72 hours
Procedure: A compound of the present invention was dissolved in lipidmicrosphere to obtain a solution in a concentration of 500μg/ml, and 0.2 ml of such solution was intraperitoneally administered to each mouse in one group consisting of seven female CDF1 mice. Intraperitoneal macrophages obtained three days after the administration and L-1210 mouse leukemia cells were mixed in the ratio of cell numbers of 20:1, respectively. Two hundred μl of the mixture was placed in each well of one sheet of 96 well microtiter plate. After 72 hours, the increase of the cell number in each well was determined by a MTT assay method. The ratio of the cell number for the mixture of the L-1210 cells and the macrophage relative to the cell number for the L-1210 cells only(growth inhibitory ratio) was determined, and the results are shown in Table 3.

[2] = system: hepatitis B virus surface antigen (HBs); test: Hepatitis-vaccine enhancing activity (adjuvant activity): anti-HBs IgG in mouse serum by ELISA; assay type: in vivo, female CDF1 mice; conditions: Experiment 1, 5000-fold dilution
In short: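 Female CDF1 mice (n=7) given 0.2 ml i.p. of compound in lipid microspheres (1 mg/ml) mixed 1:1 with HBs antigen (50 μg/ml), boosted identically at 3 weeks. Sera from weekly fundus bleeds before and after boost. Anti-HBs IgG measured by ELISA.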

[3] = system: influenza HA vaccine (B/Nagasaki/1/87 strain); assay type: in vivo, female CDF1 mice; conditions: Experiment 1, 5000-fold dilution
[4] = 1 W after i.p. administration, compound in lipidmicrosphere + HBs
[5] = 4 W (after secondary stimulation at 3 weeks)
[6] = 5 W (after secondary stimulation at 3 weeks)
[7] = 1 W after i.p. administration, compound in lipidmicrosphere + HA vaccine

Row | SMILES | Growth inhibitory ratio of L-1210 mouse leukemia cells [1] [%] | Anti-HBs IgG antibody level in serum (ELISA absorbance at 415 nm) [2, 4] [O.D 415 nm] | Anti-HBs IgG antibody level in serum (ELISA absorbance at 415 nm) ([2]; 2 W) [O.D 415 nm] | Anti-HBs IgG antibody level in serum (ELISA absorbance at 415 nm) ([2]; 3 W) [O.D 415 nm] | Anti-HBs IgG antibody level in serum (ELISA absorbance at 415 nm) [2, 5] [O.D 415 nm] | Anti-HBs IgG antibody level in serum (ELISA absorbance at 415 nm) [2, 6] [O.D 415 nm] | Anti HA serum antigen value (average value ± S.D.) [3, 7] [O.D 415 nm] | Anti HA serum antigen value (average value ± S.D.) ([3]; 2 W) [O.D 415 nm] | Anti HA serum antigen value (average value ± S.D.) ([3]; 3 W) [O.D 415 nm] | Anti HA serum antigen value (average value ± S.D.) [3, 5] [O.D 415 nm] | Anti HA serum antigen value (average value ± S.D.) [3, 6] [O.D 415 nm]
1 | CCCCCCCCCCCCCC(=O)OC[C@H]1O[C@H](OC(=O)C[C@@H](CCCCCCCCCCC)OC(=O)CCCCCCCCCCCCC)[C@H](NC(C)=O)[C@@H](O[C@H](C)C(=O)N[C@@H](C)C(=O)N[C@H](CCC(=O)OC)C(N)=O)[C@@H]1O [Example 12, N-[2-0-{2-Acetamido-2,3-dideoxy-6-0-tetradecanoyl-1-0-((3R)-3-tetradecanoyloxytetradecanoyl)-α-D-glucopyranos-3yl}-D-lactoyl]-L-alanyl-D-isoglutamine methylester] | 79.0 | 0.007 ± 0.003 | 0.109 ± 0.002 | 0.111 ± 0.001 | 0.608 ± 0.021 | 0.695 ± 0.021 | 0 | 0.105 ± 0.004 | 0.176 ± 0.002 | 1.039 ± 0.015 | 1.050 ± 0.008
2 | CCCCCCCCCCCCCCCCCC(=O)OC[C@H]1O[C@H](OC(=O)C[C@@H](CCCCCCCCCCC)OC(=O)CCCCCCCCCCCCC)[C@H](NC(C)=O)[C@@H](O[C@H](C)C(=O)N[C@@H](C)C(=O)N[C@H](CCC(=O)OC)C(N)=O)[C@@H]1O [Example 13, N-[2-0-{2-Acetamido-2,3-dideoxy-6-0-octadecanoyl-1-0-((3R)-3-tetradecanoyloxytetradecanoyl)-α-D-glucopyranos-3-yl}-D-lactoyl]-L-alanyl-D-isoglutamine methylester] | 39.7 | 0 | 0.081 ± 0.003 | 0.126 ± 0.003 | 0.635 ± 0.011 | 0.742 ± 0.016 | 0 | 0.088 ± 0.004 | 0.140 ± 0.001 | 0.868 ± 0.010 | 0.824 ± 0.002
3 | CCCCCCCCCCCCCC(=O)O[C@H](CCCCCCCCCCC)CC(=O)S[C@@H]1O[C@H](COC(=O)CCCCCCCCC)[C@@H](O)[C@H](O[C@H](C)C(=O)N[C@@H](C)C(=O)N[C@H](CCC(=O)OC)C(N)=O)[C@H]1NC(C)=O [Example 14, N-[2-0-{2-Acetamido-2,3-dideoxy-6-0-decanoyl-1-S-((3R)-R-tetradecanoyloxytetradecanoyl)-1-thio-β-D-glucopyranos-3yl}-D-lactoyl]-L-alanyl-D-isoglutamine methylester] | 96.4 | 0 | 0.071 ± 0.000 | 0.104 ± 0.003 | 0.784 ± 0.022 | 0.846 ± 0.024 | 0 | 0.110 ± 0.003 | 0.186 ± 0.007 | 0.974 ± 0.006 | 0.954 ± 0.002
4 | CCCCCCCCCCCCCC(=O)OC[C@H]1O[C@@H](SC(=O)C[C@@H](CCCCCCCCCCC)OC(=O)CCCCCCCCCCCCC)[C@H](NC(C)=O)[C@@H](O[C@H](C)C(=O)N[C@@H](C)C(=O)N[C@H](CCC(=O)OC)C(N)=O)[C@@H]1O [Example 15] | 87.5 | 0 | 0.085 ± 0.002 | 0.129 ± 0.001 | 0.788 ± 0.008 | 0.905 ± 0.020 | 0.007 ± 0.000 | 0.119 ± 0.005 | 0.218 ± 0.006 | 1.249 ± 0.013 | 1.262 ± 0.017
5 | CCCCCCCCCCCCCCCCCC(=O)OC[C@H]1O[C@@H](SC(=O)C[C@@H](CCCCCCCCCCC)OC(=O)CCCCCCCCCCCCC)[C@H](NC(C)=O)[C@@H](O[C@H](C)C(=O)N[C@@H](C)C(=O)N[C@H](CCC(=O)OC)C(N)=O)[C@@H]1O [Example 16, N-[2-0-{2-Acetamido-2,3-dideoxy-6-0-octadecanoyl-1-S-((3R)-3-tetradecanoyloxytetradecanoyl)-1-thio-β-D-glucopyranos-3-yl}-D-lactoyl]-L-alanyl-D-isoglutamine methylester] | 76.3 | 0 | 0.079 ± 0.004 | 0.103 ± 0.004 | 0.850 ± 0.008 | 0.903 ± 0.021 | 0.001 ± 0.001 | 0.145 ± 0.004 | 0.257 ± 0.010 | 1.251 ± 0.010 | 1.262 ± 0.026
